What was measured:
Format in all cases: biochemical
[1] = Ferric reducing antioxidant power (FRAP) test; settings: 505 nm
Procedure: (§1) The in vitro antioxidant ability of the compounds synthesized in this work was evaluated using three different assays, including (i) the ABTS radical cation reduction-decolorization test, which uses the technique of Khan et al. consisting of the reduction of the cation radical by an antioxidant through the discoloration measured by absorption at the wavelength of 734 nm; (ii) interaction with the stable free radical DPPH, based on Bassene’s method, in which the scavenging of DPPH radicals is carried out by a colorimetric method consisting of the reduction of the DPPH radical, determined by its absorption at a wavelength of 517 nm; and (iii) the FRAP test according to the protocol of Path Canada, based on the ability of a substance to reduce Fe^3+ ions to Fe^2+ ions, which, in the presence of 1,10-phenanthroline, form a red-orange complex whose optical density can be measured at 505 nm.
The Fe^3+ reduction test followed Path Canada’s protocol with some modifications, assessing the reduction of Fe^3+ ions to Fe^2+ ions, which form a red-orange complex with 1,10-phenanthroline, measurable at 505 nm. The colour intensity correlates with the amount of Fe^3+ reduced. Four solutions were prepared: 1.2 mg ml^−1 of Fe^3+ solution (1.2 mg FeCl3 in 1 ml distilled H2O), 0.2% ortho-phenanthroline solution (200 mg powder in 100 ml ethanol), 2 mg ml^−1 of gallic acid solution (2 mg gallic acid in 1 ml distilled H2O) as a positive control, stock and dilute solutions of the synthesized compounds (see §3.2.5.1). In a 96-well microplate, 180 µl distilled H2O was added to the first column and 100 µl to others for dilution. Each compound solution (20 µl at 10 mg ml^−1) was mixed with 25 µl Fe^3+ solution and incubated for 15 min in the dark at room temperature. Afterwards, 50 µl ortho-phenanthroline solution was added, followed by another 15 min incubation. Optical density was measured at 505 nm using a TECAN M200 plate reader. The positive control was treated similarly to the DPPH and ABTS assays.
(§2) The percentages of scavenging or 50% reduction were calculated using gallic acid as a standard for 100% reduction. The concentration of radical scavengers needed to neutralize 50% of free radicals, referred to as SC50, was determined using GraphPad Prism 8.0.1 software (244).

[2] = ABTS radical cation scavenging (decolorization) test; settings: 734 nm, 30 min
Procedure: as §1
The modified technique by Khan et al. was used to scavenge ABTS^+• cation radicals through a discoloration test. In this test, potassium permanganate (KMnO4) or potassium persulphate (K2S2O8) reacts with ABTS to generate a blue-green ABTS^+• radical. Antioxidants reduce this radical, leading to a measurable colour change at 734 nm, proportional to the antioxidant concentration. The antioxidant capacity is assessed by comparing the intensity reduction of ABTS colour with that of a reference antioxidant, gallic acid. Stock and dilute solutions of synthetic compounds were prepared as detailed in §3.2.5.1. Diluted concentrations were (50, 25, 12.5, 6.25, 3.125, 1.5625 and 0.78125)/Mi in mM. The ABTS solution was obtained by mixing ABTS with K2S2O8, producing an intense blue colour. The ABTS^+• radical was generated by combining equal volumes of a 4.9 mM K2S2O8 solution and a 7 mM ABTS stock solution, stored in the dark at room temperature for 15 h before use. The 7 mM ABTS stock was then diluted 20 times with distilled water. A total of 25 µl of each dilution was added to wells along with 75 µl of 0.175 mM ABTS+ solution. After 30 min of incubation in the dark at room temperature, optical densities were measured at 734 nm. Negative controls contained the ABTS reagent without synthesized compounds, while positive controls used gallic acid at the same final concentrations as the compounds. Compounds were also tested alone to assess fluorescence. The reduction of ABTS results in a blue discoloration, with lower absorbance indicating higher antioxidant activity.
as §2

[3] = DPPH radical scavenging test; settings: 517 nm, 30 min
Procedure: as §1
The DPPH radical trapping protocol is based on Bassene’s method, modified for colorimetric analysis. DPPH is a stable purple organic nitrogen radical that absorbs light at 517 nm. When an anti-free radical agent is present, DPPH is reduced to a stable yellow compound, indicated by a loss of colour between 470 and 517 nm. A 0.02% DPPH solution was made with ethanol and stored in a sealed jar in the dark. Stock solutions of the synthesized compounds were prepared by dissolving 100 mg of each in 1 ml of DMSO, and the final concentration of DMSO concentration in the first well was 0.5%. These stocks were then diluted to achieve concentrations (500, 250, 125, 62.5, 31.25, 15.625 and 7.8125)/Mi in mM (Mi: molecular weight of each synthetic compound). Each dilution (25 µl) was put to the wells and 75 µl of the DPPH solution (0.02%) were added. Optical densities were measured at 517 nm after 30 min of incubation in the dark. The negative control used DPPH alone, while the positive control used gallic acid treated with solutions of the synthesized compounds at final concentrations (50, 25, 12.5, 6.25, 3.125, 1.5625 and 0.78125)/Mi in mM. Synthesized compounds were also tested alone to assess fluorescence.
Assays were performed in duplicate, and results were averaged. Percentage inhibition (PI), reflecting the antioxidant activity related to the DPPH˙ radical scavenging effect, was calculated using the following formula:
(PI)=Acontrol−Atest/Acontrol×100,
where Acontrol = absorbance of the control sample and Atest = absorbance of the tested sample.
as §2

[4] = first replicate, read-out: FRAP SC50(1)
[5] = mean of duplicate, read-out: FRAP mean SC50
[6] = second replicate, read-out: FRAP SC50(2)
[7] = first replicate, read-out: ABTS SC50(1)
[8] = mean of duplicate, read-out: ABTS mean SC50
[9] = second replicate, read-out: ABTS SC50(2)
[10] = first replicate, read-out: DPPH SC50(1)
[11] = mean of duplicate, read-out: DPPH mean SC50
[12] = second replicate, read-out: DPPH SC50(2)

`O=C(/C=C/c1ccccc1)OCCOC(=O)c1ccccc1O` [Compound 12, (E)-2-(cinnamoyloxy)ethyl 2-hydroxybenzoate] showed an EC50 [1, 4] of 6.21 mM, an EC50 [1, 5] of 6.21 mM and an EC50 [1, 6] of 6.22 mM. It also gave an EC50 [2, 7] of 3.36 mM, an EC50 [2, 8] of 3.47 mM and an EC50 [2, 9] of 3.6 mM. The EC50 [3, 10] was 8.63 mM, the EC50 [3, 11] was 8.68 mM and the EC50 [3, 12] was 8.73 mM.

`O=C(OCCO)c1ccccc1O` [Compound 7, 2-hydroxyethyl 2-hydroxybenzoate] showed an EC50 [1, 4] of 11 mM, an EC50 [1, 5] of 10.9 mM and an EC50 [1, 6] of 10.9 mM. It also gave an EC50 [2, 7] of 0.21 mM, an EC50 [2, 8] of 0.21 mM and an EC50 [2, 9] of 0.21 mM. It also gave an EC50 [3, 10] of 12.2 mM, an EC50 [3, 11] of 12.1 mM and an EC50 [3, 12] of 12.1 mM.

`CC(C)Cc1ccc(C(C)C(=O)OCCO)cc1` (stereo not shown) [Compound 3, 2-hydroxyethyl 2-(4-isobutylphenyl)propanoate] showed an EC50 [1, 4] of 7.58 mM, an EC50 [1, 5] of 7.48 mM and an EC50 [1, 6] of 7.39 mM. It also gave an EC50 [2, 7] of 3.7 mM, an EC50 [2, 8] of 3.9 mM and an EC50 [2, 9] of 4.11 mM. It also gave an EC50 [3, 10] of 10.5 mM, an EC50 [3, 11] of 10.4 mM and an EC50 [3, 12] of 10.4 mM.

`CCCCCCCCCCCC(=O)OCCOC(=O)C(C)c1ccc(CC(C)C)cc1` (stereo not shown) [Compound 5a, 2-((2-(4-isobutylphenyl)propanoyl)oxy)ethyl dodecanoate] showed an EC50 [1, 4] of 4.66 mM, an EC50 [1, 5] of 4.67 mM and an EC50 [1, 6] of 4.67 mM. The EC50 [2, 7] was 2.77 mM, the EC50 [2, 8] was 2.79 mM and the EC50 [2, 9] was 2.81 mM. It also gave an EC50 [3, 10] of 3.5 mM, an EC50 [3, 11] of 3.52 mM and an EC50 [3, 12] of 3.53 mM.

`CC(C)Cc1ccc(C(=O)OCCOC(=O)C(C)c2ccc(CC(C)C)cc2)cc1` (stereo not shown) [Compound 2, 2-((2-(4-isobutylphenyl)propanoyl)oxy)ethyl 4-isobutylbenzoate] showed an EC50 [1, 4] of 6.79 mM, an EC50 [1, 5] of 6.79 mM and an EC50 [1, 6] of 6.79 mM. The EC50 [2, 7] was 1.67 mM, the EC50 [2, 8] was 1.7 mM and the EC50 [2, 9] was 1.73 mM. For the same compound, the EC50 [3, 10] was 5.05 mM, the EC50 [3, 11] was 4.92 mM and the EC50 [3, 12] was 4.78 mM.

Work on `O=C(OCCOC(=O)c1ccccc1O)c1ccccc1O` [Compound 13, Ethane-1,2-diyl bis(2-hydroxybenzoate)] yielded an EC50 [1, 4] of 6.73 mM, an EC50 [1, 5] of 6.69 mM and an EC50 [1, 6] of 6.66 mM. It also gave an EC50 [2, 7] of 0.21 mM, an EC50 [2, 8] of 0.2 mM and an EC50 [2, 9] of 0.2 mM. For the same compound, the EC50 [3, 10] was 6.61 mM and the EC50 [3, 12] was 6.46 mM.

Compound `O=C(O)/C=C/c1ccccc1` [Compound 11, cinnamic acid, reference compound] has an EC50 [1, 4] of 13.8 mM, an EC50 [1, 5] of 13.7 mM and an EC50 [1, 6] of 13.6 mM. For the same compound, the EC50 [2, 7] was 5.83 mM, the EC50 [2, 8] was 5.91 mM and the EC50 [2, 9] was 5.98 mM. The EC50 [3, 10] was 11.1 mM, the EC50 [3, 11] was 11 mM and the EC50 [3, 12] was 10.9 mM.

With `CC(C)Cc1ccc(C(C)C(=O)OCCOC(=O)C=Cc2ccccc2)cc1` (stereo not shown) [Compound 14, 2-((2-(4-isobutylphenyl)propanoyl)oxy)ethyl cinnamate] the EC50 [1, 4] was 7.68 mM, the EC50 [1, 6] was 7.27 mM and the EC50 [2, 7] was 0.18 mM. The EC50 [2, 8] was 0.18 mM, the EC50 [2, 9] was 0.18 mM and the EC50 [3, 10] was 6.64 mM. It also gave an EC50 [3, 11] of 6.13 mM and an EC50 [3, 12] of 6.68 mM.

`CCCCCCCCCCCC(=O)OCCOC(=O)c1ccccc1O` [DEW4a] showed an EC50 [1, 4] of 8.06 mM, an EC50 [1, 5] of 8.03 mM and an EC50 [1, 6] of 8 mM. The EC50 [2, 7] was 3.24 mM, the EC50 [2, 8] was 3.25 mM and the EC50 [2, 9] was 3.3 mM. The EC50 [3, 10] was 5.82 mM, the EC50 [3, 11] was 5.79 mM and the EC50 [3, 12] was 5.77 mM.

For `CC(C)Cc1ccc(C(C)C(=O)O)cc1` (stereo not shown) [Compound 1, ibuprofen, reference compound], the EC50 [1, 4] was 12.9 mM, the EC50 [1, 5] was 13 mM and the EC50 [1, 6] was 13.2 mM. The EC50 [2, 7] was 0.21 mM, the EC50 [2, 8] was 0.2 mM and the EC50 [2, 9] was 0.2 mM. The EC50 [3, 10] was 9.81 mM, the EC50 [3, 11] was 10 mM and the EC50 [3, 12] was 10.2 mM.

Reference: publication PMC12074795, “Synthesis and biological evaluation of esterified anti-inflammatory drugs with ethylene glycol linkers: cytotoxicity, anti-inflammatory and antioxidant properties” (Royal Society Open Science, 2025)
